{"source": "PubChem BioAssay AID1259409", "about": "(Chemical Carcinogenesis Research Information System (CCRIS), 2018)", "origin": "cited, not measured here", "test_system": "rodent chemically induced tumor inhibition, incidence and multiplicity", "assay": "CCRIS tumor inhibitor studies", "settings": "Route [Inhibitor]: ORAL, Species: RAT, Strain/Sex: F344/MALE, Promoter: NONE USED"}
{"smiles": "O=C1O[C@H]([C@@H](O)CO)C(O)=C1O", "values": [{"measurement": "tumour outcome (control, treated, inhibition, significance)", "setting": "Carcinogen: N-BIS(2-HYDROXYPROPYL)NITROSAMINE, 53609-64-6, Dose [Inhibitor]: 0, 5% IN DIET FOR 30 WK BEGINNING POST CARCINOGEN TREATMENT (STUDY DURATION: 32 WK), Target Tissue: Type of Lesion: BLADDER: ADENOMA, Dose [Carcinogen]: 0.1% IN DRINKING WATER FOR 2 WK", "result": "5%, 10%, -100%, not calculated"}, {"measurement": "tumour outcome (control, treated, inhibition, significance)", "setting": "Carcinogen: N-BIS(2-HYDROXYPROPYL)NITROSAMINE, 53609-64-6, Dose [Inhibitor]: 0, 5% IN DIET FOR 30 WK BEGINNING POST CARCINOGEN TREATMENT (STUDY DURATION: 32 WK), Target Tissue: Type of Lesion: KIDNEY: TUMOR, Dose [Carcinogen]: 0.1% IN DRINKING WATER FOR 2 WK", "result": "10%, 30%, -200%, not calculated"}, {"measurement": "tumour outcome (control, treated, inhibition, significance)", "setting": "Carcinogen: N-BIS(2-HYDROXYPROPYL)NITROSAMINE, 53609-64-6, Dose [Inhibitor]: 0, 5% IN DIET FOR 30 WK BEGINNING POST CARCINOGEN TREATMENT (STUDY DURATION: 32 WK), Target Tissue: Type of Lesion: LUNG: ADENOMA, Dose [Carcinogen]: 0.1% IN DRINKING WATER FOR 2 WK", "result": "100%, 100%, 0%, not significant"}, {"measurement": "tumour outcome (control, treated, inhibition, significance)", "setting": "Carcinogen: N-BIS(2-HYDROXYPROPYL)NITROSAMINE, 53609-64-6, Dose [Inhibitor]: 0, 5% IN DIET FOR 30 WK BEGINNING POST CARCINOGEN TREATMENT (STUDY DURATION: 32 WK), Target Tissue: Type of Lesion: LUNG: CARCINOMA, Dose [Carcinogen]: 0.1% IN DRINKING WATER FOR 2 WK", "result": "45%, 20%, 56%, not calculated"}, {"measurement": "tumour outcome (control, treated, inhibition, significance)", "setting": "Carcinogen: N-BIS(2-HYDROXYPROPYL)NITROSAMINE, 53609-64-6, Dose [Inhibitor]: 0, 5% IN DIET FOR 30 WK BEGINNING POST CARCINOGEN TREATMENT (STUDY DURATION: 32 WK), Target Tissue: Type of Lesion: THYROID: ADENOMA, Dose [Carcinogen]: 0.1% IN DRINKING WATER FOR 2 WK", "result": "5%, 30%, -500%, not calculated"}, {"measurement": "tumour outcome (control, treated, inhibition, significance)", "setting": "Carcinogen: N-BIS(2-HYDROXYPROPYL)NITROSAMINE, 53609-64-6, Dose [Inhibitor]: 0, 5% IN DIET FOR 30 WK BEGINNING POST CARCINOGEN TREATMENT (STUDY DURATION: 32 WK), Target Tissue: Type of Lesion: THYROID: CARCINOMA, Dose [Carcinogen]: 0.1% IN DRINKING WATER FOR 2 WK", "result": "20%, 10%, 50%, not calculated"}, {"measurement": "tumour outcome (control, treated, inhibition, significance)", "setting": "Carcinogen: N-BUTYL-N-(4-HYDROXYBUTYL)NITROSAMINE, 3817-11-6, Dose [Inhibitor]: 4.45% IN BASAL DIET ADMINISTERED SIMULTANEOUSLY WITH CARCINOGEN DOSE FOR 20 WK (STUDY DURATION: 20 WK), Target Tissue: Type of Lesion: BLADDER: CARCINOMA, Dose [Carcinogen]: 0.025% IN DRINKING WATER FOR 20 WK", "result": "3/15 (20%), 6/14 (43%), -115%, not calculated"}, {"measurement": "tumour outcome (control, treated, inhibition, significance)", "setting": "Carcinogen: N-BUTYL-N-(4-HYDROXYBUTYL)NITROSAMINE, 3817-11-6, Dose [Inhibitor]: 4.45% IN BASAL DIET ADMINISTERED SIMULTANEOUSLY WITH CARCINOGEN DOSE FOR 20 WK (STUDY DURATION: 20 WK), Target Tissue: Type of Lesion: BLADDER: PAPILLOMA, Dose [Carcinogen]: 0.025% IN DRINKING WATER FOR 20 WK (FOR A TOTAL INTAKE OF 4.0 MMOL/RAT)", "result": "4/15 (27%), 4/14 (29%), -7%, not calculated"}, {"measurement": "tumour outcome (control, treated, inhibition, significance)", "setting": "Carcinogen: N-BUTYL-N-(4-HYDROXYBUTYL)NITROSAMINE, 3817-11-6, Dose [Inhibitor]: 5% DIET DAILY FOR 34 WK BEGINNING POST CARCINOGEN TREATMENT (STUDY DURATION: 38 WK), Target Tissue: Type of Lesion: URINARY BLADDER: PAPILLOMA, Dose [Carcinogen]: 0.01% IN DRINKING WATER FOR 4 WK", "result": "33%, 21%, 36%, not significant"}, {"measurement": "tumour outcome (control, treated, inhibition, significance)", "setting": "Carcinogen: N-BUTYL-N-(4-HYDROXYBUTYL)NITROSAMINE, 3817-11-6, Dose [Inhibitor]: 5% IN BASAL DIET ADMINISTERED SIMULTANEOUSLY WITH CARCINOGEN DOSE FOR 20 WK (STUDY DURATION: 20 WK), Target Tissue: Type of Lesion: BLADDER: CARCINOMA, Dose [Carcinogen]: 0.025% IN DRINKING WATER FOR 20 WK", "result": "3/15 (20%), 6/15 (40%), -100%, not calculated"}, {"measurement": "tumour outcome (control, treated, inhibition, significance)", "setting": "Carcinogen: N-BUTYL-N-(4-HYDROXYBUTYL)NITROSAMINE, 3817-11-6, Dose [Inhibitor]: 5% IN BASAL DIET ADMINISTERED SIMULTANEOUSLY WITH CARCINOGEN DOSE FOR 20 WK (STUDY DURATION: 20 WK), Target Tissue: Type of Lesion: BLADDER: PAPILLOMA, Dose [Carcinogen]: 0.025% IN DRINKING WATER FOR 20 WK (FOR A TOTAL INTAKE OF 4.7 MMOL/RAT)", "result": "4/15 (27%), 2/15 (13%), 50%, not significant"}, {"measurement": "tumour outcome (control, treated, inhibition, significance)", "setting": "Carcinogen: N-ETHYL-N-(4-HYDROXYBUTYL)NITROSAMINE, 54897-62-0, Dose [Inhibitor]: 4.45% IN BASAL DIET ADMINISTERED SIMULTANEOUSLY WITH CARCINOGEN DOSE FOR 20 WK (STUDY DURATION: 20 WK), Target Tissue: Type of Lesion: BLADDER: CARCINOMA, Dose [Carcinogen]: 0.021% IN DRINKING WATER FOR 20 WK", "result": "13/15 (87%), 14/15 (93%), -8%, not calculated"}, {"measurement": "tumour outcome (control, treated, inhibition, significance)", "setting": "Carcinogen: N-ETHYL-N-(4-HYDROXYBUTYL)NITROSAMINE, 54897-62-0, Dose [Inhibitor]: 4.45% IN BASAL DIET ADMINISTERED SIMULTANEOUSLY WITH CARCINOGEN DOSE FOR 20 WK (STUDY DURATION: 20 WK), Target Tissue: Type of Lesion: BLADDER: PAPILLOMA, Dose [Carcinogen]: 0.021% IN DRINKING WATER FOR 20 WK", "result": "14/15 (93%), 15/15 (100%), -7%, not calculated"}, {"measurement": "tumour outcome (control, treated, inhibition, significance)", "setting": "Carcinogen: N-ETHYL-N-(4-HYDROXYBUTYL)NITROSAMINE, 54897-62-0, Dose [Inhibitor]: 5% IN BASAL DIET ADMINISTERED SIMULTANEOUSLY WITH CARCINOGEN DOSE FOR 20 WK (STUDY DURATION: 20 WK), Target Tissue: Type of Lesion: BLADDER: CARCINOMA, Dose [Carcinogen]: 0.021% IN DRINKING WATER FOR 20 WK", "result": "13/15 (87%), 13/15 (87%), 0%, not significant"}]}
